# Legend:
# [1] = molecular target: T1, Human recombinant monoamine oxidase B (Homo sapiens, UniProt P27338); assay: Inhibitory effect on the activity of monoamine oxidase B; assay type: biochemical; conditions: human recombinant MAO-B, substrate benzylamine hydrochloride
# T1 construct: host or cells: Sf9 cells
# T1 sequence (P27338 1-520): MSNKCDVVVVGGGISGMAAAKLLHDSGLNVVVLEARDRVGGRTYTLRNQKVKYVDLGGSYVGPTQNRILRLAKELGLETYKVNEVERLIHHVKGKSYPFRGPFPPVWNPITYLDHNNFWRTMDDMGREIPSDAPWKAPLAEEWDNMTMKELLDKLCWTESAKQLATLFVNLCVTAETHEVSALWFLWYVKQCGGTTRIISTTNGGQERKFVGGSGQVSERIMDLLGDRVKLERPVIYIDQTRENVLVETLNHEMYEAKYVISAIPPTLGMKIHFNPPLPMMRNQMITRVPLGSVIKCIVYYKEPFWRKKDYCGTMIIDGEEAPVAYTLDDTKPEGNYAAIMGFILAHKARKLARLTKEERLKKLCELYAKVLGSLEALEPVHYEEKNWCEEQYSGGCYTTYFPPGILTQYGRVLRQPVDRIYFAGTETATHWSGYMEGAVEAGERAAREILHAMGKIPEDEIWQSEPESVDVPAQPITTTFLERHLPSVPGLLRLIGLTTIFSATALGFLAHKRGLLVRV
# Experimental: Human recombinant monoamine oxidase B expressed in Sf9 cells was used in the test system. In the experiment, firstly, the recombinant monoamine oxidase B was dissolved in the pre-configured HEPES buffer (0.8% NaCl, 0.037% KCl, 0.0135% Na2HPO4.2H2O, 0.1% Glucan, 0.5% HEPES, pH=7.0) at a concentration of 0.3 μg/μL. To each well of a 384-well plate was added 10 μL of monoamine oxidase B solution, and the test compound with different concentrations (the final concentration of DMSO was 1%) (10 gradient concentrations were 10 mM, 1 mM, 100 μM, 10 μM, 1 μM, 100 nM, 10 nM, 1 nM, 0.1 nM, 0.01 nM) were added into the wells respectively. The standard reference compound was R-(−)-Deprenyl, the plate was incubated at room temperature for 15 min. Then, each well filled with 10 μL substrate solution (Benzylamine hydrochloride, 1 mM) was incubated at room temperature for 60 min. Then 20 μL of fluorescein detection reagent was added to each well, which was fully blended and incubated at room temperature for 20 minutes to produce stable fluorescence signal. The fluorescence signal was read by fluorescein labeling instrument, and the value was expressed by relative light intensity (RLU). The inhibitory rate on enzyme activity was calculated according to the experimental results, the calculated formula: Inh %=(Max−Signal)/(Max−Min)*100, wherein Max was the detected value at the maximum concentration of the sample, Min was the detected value at the minimum concentration of the sample, and Signal was the detected value at the current concentration of the sample.
# (§1) The standard curve was obtained through the series concentration by experimental test to calculate the IC50.
# [2] = molecular target: T2, Human recombinant monoamine oxidase A (Homo sapiens, UniProt P21397); assay: Inhibitory effect on the activity of monoamine oxidase A; assay type: biochemical; conditions: human recombinant MAO-A, substrate p-tyramine hydrochloride
# T2 construct: host or cells: Sf9 cells
# T2 sequence (P21397 1-527): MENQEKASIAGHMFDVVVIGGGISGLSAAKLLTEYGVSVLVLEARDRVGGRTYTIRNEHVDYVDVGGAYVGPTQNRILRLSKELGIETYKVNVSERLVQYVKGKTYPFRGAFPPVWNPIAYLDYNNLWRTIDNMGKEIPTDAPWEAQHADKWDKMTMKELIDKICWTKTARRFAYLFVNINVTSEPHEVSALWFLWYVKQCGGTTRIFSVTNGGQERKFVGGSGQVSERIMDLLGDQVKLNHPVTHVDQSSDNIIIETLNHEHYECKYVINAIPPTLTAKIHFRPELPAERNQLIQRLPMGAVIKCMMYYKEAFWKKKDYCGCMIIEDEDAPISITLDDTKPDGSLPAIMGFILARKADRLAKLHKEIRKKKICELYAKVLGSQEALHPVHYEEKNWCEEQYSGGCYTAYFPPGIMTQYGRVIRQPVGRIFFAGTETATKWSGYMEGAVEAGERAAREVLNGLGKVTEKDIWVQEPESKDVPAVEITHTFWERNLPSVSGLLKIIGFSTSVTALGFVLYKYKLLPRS
# Experimental: Human recombinant monoamine oxidase A expressed in Sf9 cells was used in the test system. In the experiment, firstly, the recombinant monoamine oxidase A was dissolved in the pre-configured HEPES buffer (0.8% NaCl, 0.037% KCl, 0.0135% Na2HPO4.2H2O, 0.1% Glucan, 0.5% HEPES, pH=7.0) at a concentration of 0.3 μg/μL. To each well of a 384-well plate was added 10 μL of monoamine oxidase A solution, and the test compound with different concentrations (the final concentration of DMSO was 1%) (10 gradient concentrations were 10 mM, 1 mM, 100 μM, 10 μM, 1 μM, 100 nM, 10 nM, 1 nM, 0.1 nM, 0.01 nM) were added into the wells, respectively. The standard reference compound was Clorgyline, the plate was incubated at room temperature for 15 min. Then, each well filled with […] (p-Tyramine hydrochloride, 1 mM) was incubated at room temperature for 60 min. Then 20 μL of fluorescein detection reagent was added to each well, which was fully blended and incubated at room temperature for 20 minutes to produce stable fluorescence signal. The fluorescence signal was read by fluorescein labeling instrument, and the value was expressed by relative light intensity (RLU). The inhibitory rate on enzyme activity was calculated according to the experimental results, the calculated formula: Inh %=(Max−Signal)/(Max−Min)*100, wherein Max was the detected value at the maximum concentration of the sample, Min was the detected value at the minimum concentration of the sample, and Signal was the detected value at the current concentration of the sample.
# as §1
# [3] = Pharmacokinetic evaluation after intravenous or gavage administration in rats; assay type: in vivo, SD rats
# Experimental: The LC-MS/MS system comprises Agilent 1200 series vacuum degassing furnace, quaternary pumps, well-plate autosampler, thermostatted column compartment, the API4000Qtrap Triple Quadrupole Mass Spectrometer with an electrospray ionization (ESI) source. Quantitative analysis was carried out using MRM mode. The parameters for MRM transitions are in Table 2.
# Analysis was carried out on waters xbridge C18 (2.1×50 mm, […] column, 0.5 μL of sample), the analytic conditions are mobile phases cosisting of water+2 mM ammonium formate+0.1% formic acid (Phase A) and methanol+2 mM ammonium formate+0.1% formic acid (Phase B). The flow rate was 0.4 mL/min. And the gradient of Mobile phase was in Table 3.
# Each animal species was divided into two groups: one was administered intravenously and the other was administered intragastrically. The compounds disclosed herein were administered in form of a solution containing 5% DMSO+5% Kolliphor HS15+90% Saline. For the group of intravenous administration, the administration dose was 1 mg/kg, and vein blood samples (0.3 ml) were collected at the time points of 0.083, 0.25, 0.5, 1.0, 2.0, 4.0, 6.0, 8.0 and 24 h after drug administration, then plasma solutions were collected by centrifuging each blood sample at 3000 rpm or 4000 rpm for 10 minutes and kept at −20° C. or −70° C. For the group of intragastric administration, the administration dose was 5 mg/kg, and vein blood samples (0.3 mL) were collected at the time points of 0.25, 0.5, 1.0, 2.0, 4.0, 6.0, 8.0 and 24 h after drug administration, then plasma solutions were collected by centrifuging each blood sample at 3000 rpm or 4000 rpm for 10 minutes and kept at −20° C. or −70° C.
# 20 μL of plasma was blended with 120 μl, 50 ng/ml propranolol standard water solution, then the mixture was extracted with 1.0 mL methyl tert-butyl ether (MTBE), 0.7 mL of supernatant was dried by blow with nitrogen and then dissolved again with 220 μL methanol water (methanol/water (v/v)=1/1). LC-MS/MS method was used to detect the concentration of the target compounds, and […] was used to calculate the pharmacokinetic parameters.
# [4] = SD, rat, plasma, iv, i.v group, 1 mg/kg
# [5] = SD, rat, plasma, po, i.g group, 5 mg/kg
compound,measurement,setting,value
"CC1(C)C[C@@H](C(N)=O)N(Cc2ccc(OCc3cccc(F)c3)cc2)C1 [Example 8, (S)-1-(4-(3-fluorobenzyloxy)benzyl)-4,4-dimethylpyrrolidine-2-formamide]",IC50,[1],1400 nM
"NC(=O)[C@@H]1CC(F)(F)CN1Cc1ccc(OCc2cccc(F)c2)cc1F [Example 11, (S)-4,4-difluoro-1-(2-fluoro-4-(3-fluorobenzyloxy)benzyl) pyrrolidine-2-formamide]",IC50,[1],2200 nM
"C[C@H]1C[C@@H](C(N)=O)N(Cc2ccc(OCc3cccc(F)c3)cc2)C1 [Example 14, (2S,4S)-1-(4-(3-fluorobenzyloxy)benzyl)-4-methylpyrrolidine-2-formamide]",IC50,[1],83 nM
same,IC50,[2],27000 nM
"C[C@H]1C[C@@H](C(N)=O)N(Cc2ccc(OCc3cccc(F)c3)cc2F)C1 [Example 15, (2S,4S)-1-(2-fluoro-4-(3-fluorobenzyloxy)benzyl)-4-methylpyrrolidine-2-formamide]",IC50,[1],130 nM
same,IC50,[2],29000 nM
"NC(=O)[C@@H]1C[C@@H](F)CN1Cc1ccc(OCc2cccc(F)c2)cc1 [Example 12, (2S,4R)-4-fluoro-1-(4-(3-fluorobenzyloxy)benzyl)pyrrolidine-2-formamide]",IC50,[1],720 nM
same,AUC(0-inf),[3]; [4],453 ng·h/mL
same,AUC(0-t),[3]; [4],452 ng·h/mL
same,Cmax,[3]; [4],661 ng/mL
same,MRT inf,[3]; [4],40 min
same,Tmax,[3]; [4],4.98 min
same,clearance,[3]; [4],36.8 mL/min/kg
same,half-life,[3]; [4],37 min
same,AUC(0-inf),[3]; [5],1830 ng·h/mL
same,AUC(0-t),[3]; [5],1820 ng·h/mL
same,Cmax,[3]; [5],1010 ng/mL
same,MRT inf,[3]; [5],78.6 min
same,Tmax,[3]; [5],20 min
same,half-life,[3]; [5],39.1 min
same,F,"[3]; i.g group, 5 mg/kg",80.7%
"NC(=O)[C@@H]1CC(F)(F)CN1Cc1ccc(OCc2cccc(F)c2)cc1 [Example 10, (S)-4,4-difluoro-1-(4-(3-fluorobenzyloxy)benzyl)pyrrolidine-2-formamide]",IC50,[1],1100 nM

# Reference: patent publication US11225460B2, “Pyrrolidineamide derivatives and uses thereof” (SUNSHINE LAKE PHARMA CO., LTD., priority 2019, dated 2022)
